{
  "source": "patent US10426757B2",
  "about": "“Compositions and methods for promoting intestinal stem cell and/or non-stem progenitor cell function” (Whitehead Institute for Biomedical Research, priority 2014, dated 2019)",
  "system": "control diet-derived organoids",
  "assay": "Ex vivo exposure of crypts and organoids to palmitic acid",
  "format": "cell-based, mouse",
  "experimental": "To examine whether PA, like a HFD, augmented the numbers of ISCs per primary organoid, we assayed the self-renewal capacity of the primary organoids in secondary cultures and assessed how PA-treatment influenced the frequency of ISCs.\nIsolated crypts were counted and embedded in Matrigel™ (Corning 356231 growth factor reduced) at 5-10 crypts per μl and cultured in a modified form of medium as described previously.^14 Briefly, Advanced DMEM (Gibco) was supplemented by EGF 40 ng ml^−1 (R&D), Noggin 200 ng ml^−1 (Peprotech), R-spondin […](R&D or Sino Biological), N-acetyl-L-cysteine 1 μM (Sigma-Aldrich), N2 1X (Life Technologies), B27 1X (Life Technologies), Chiron 10 μM (Stemgent), Y-27632 dihydrochloride monohydrate 20 ng ml^−1 (Sigma-Aldrich). 25 μL drops of Matrigel™ with crypts were plated onto a flat bottom 48-well plate (Corning 3548) and allowed to solidify for 20-30 minutes in a 37° C. incubator. Three hundred microliters of crypt culture medium was then overlaid onto the Matrigel™, changed every three days, and maintained at 37° C. in fully humidified chambers containing 5% CO2. Clonogenicity (colony-forming efficiency) was calculated by plating 50-300 crypts and assessing organoid formation 3-7 days or as specified after initiation of cultures.\nIsolated ISCs or progenitor cells were centrifuged for 5 minutes at 250 g, re-suspended in the appropriate volume of crypt culture medium (500-1,000 cells μl^−1), then seeded onto 25-30 μl Matrigel™ (Corning 356231 growth factor reduced) containing 1 μM jagged (Ana-Spec) in a flat bottom 48-well plate (Corning 3548). Alternatively, ISCs and Paneth cells were mixed after sorting in a 1:1 ratio, centrifuged, and then seeded onto Matrigel™. The Matrigel™ and cells were allowed to solidify before adding 300 μl of crypt culture medium. The crypt media was changed every second or third day. Organoid bodies were quantified on days 3, 7 and 10 of culture, unless otherwise specified. With respect to the study results presented in FIGS. 14-16, organoid bodies were quantified on day 3-4. […]",
  "note": "“Also recorded” adds a separate entry of the source.",
  "data": [
    {"smiles": "CCCCCCCCCCCCCCCC(=O)O", "note": "[PA, palmitic acid]", "values": [
      {"measurement": "primary organoid formation (clonogenic potential of crypts)", "setting": "30 μM PA", "result": "did not change; also recorded: no effect"},
      {"measurement": "secondary organoid-forming activity", "setting": "30 μM PA, four weeks", "result": "more than twofold increase; also recorded: more secondary organoid-forming activity"},
      {"measurement": "frequency of Lgr5-GFP^hi ISCs in organoids", "setting": "four-week PA treatment", "result": "twofold increase; also recorded: increased the frequency"}
    ]}
  ]
}
